The values below come from patent US20240425491A1, “HETEROARYL COMPOUNDS USEFUL IN THE TREATMENT OF COGNITIVE DISORDERS” (University College Cardiff Consultants Limited, priority 2021, published 2024).

By Ki is commonly meant the equilibrium dissociation constant of an inhibitor or competing ligand from its target.

The target of test [1] is T1, human α5β3γ2 GABAARs in mouse L(tk−) cells (Homo sapiens, UniProt P18507+P31644).
T1 construct: expressed in transfected cells; host or cells: mouse L(tk−) cells, dexamethasone-inducible vector pMSGneo
T1 sequence (P31644 32-462): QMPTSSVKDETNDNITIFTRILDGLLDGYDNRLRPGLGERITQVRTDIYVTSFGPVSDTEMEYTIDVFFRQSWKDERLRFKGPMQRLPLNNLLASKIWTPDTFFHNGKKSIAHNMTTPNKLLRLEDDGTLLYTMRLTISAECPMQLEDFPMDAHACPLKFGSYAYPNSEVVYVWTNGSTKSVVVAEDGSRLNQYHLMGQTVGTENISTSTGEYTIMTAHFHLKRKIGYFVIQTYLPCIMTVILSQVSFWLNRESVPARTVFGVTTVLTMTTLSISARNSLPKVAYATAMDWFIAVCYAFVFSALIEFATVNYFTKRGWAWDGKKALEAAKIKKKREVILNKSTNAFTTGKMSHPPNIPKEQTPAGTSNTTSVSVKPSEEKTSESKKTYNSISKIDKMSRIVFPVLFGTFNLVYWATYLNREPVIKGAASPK
T1 sequence (P28472 26-473 partner): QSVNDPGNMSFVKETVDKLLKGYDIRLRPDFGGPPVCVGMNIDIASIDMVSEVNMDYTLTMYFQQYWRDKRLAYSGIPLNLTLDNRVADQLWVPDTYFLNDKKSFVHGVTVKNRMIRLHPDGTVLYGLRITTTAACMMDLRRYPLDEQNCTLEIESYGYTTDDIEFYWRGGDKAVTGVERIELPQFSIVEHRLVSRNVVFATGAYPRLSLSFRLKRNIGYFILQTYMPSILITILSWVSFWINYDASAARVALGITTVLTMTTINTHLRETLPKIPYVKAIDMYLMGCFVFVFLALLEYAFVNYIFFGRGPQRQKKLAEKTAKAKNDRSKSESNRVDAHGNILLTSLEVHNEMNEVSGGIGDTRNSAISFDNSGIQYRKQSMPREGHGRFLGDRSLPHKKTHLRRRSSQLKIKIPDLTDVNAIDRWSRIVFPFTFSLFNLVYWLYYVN
T1 sequence (P18507 40-475): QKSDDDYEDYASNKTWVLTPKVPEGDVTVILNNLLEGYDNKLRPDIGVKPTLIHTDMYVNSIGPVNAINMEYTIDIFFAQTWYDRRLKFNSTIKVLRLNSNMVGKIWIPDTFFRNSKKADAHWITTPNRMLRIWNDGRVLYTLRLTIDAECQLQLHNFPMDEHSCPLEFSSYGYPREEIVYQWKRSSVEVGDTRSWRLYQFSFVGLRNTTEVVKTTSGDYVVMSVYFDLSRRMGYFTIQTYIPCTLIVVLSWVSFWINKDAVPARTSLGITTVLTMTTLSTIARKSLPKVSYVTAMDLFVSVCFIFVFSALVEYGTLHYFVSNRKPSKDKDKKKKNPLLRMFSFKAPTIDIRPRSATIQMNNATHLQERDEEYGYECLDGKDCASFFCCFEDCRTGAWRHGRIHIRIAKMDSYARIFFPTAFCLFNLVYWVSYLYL
Nature of the test: In vitro electrophysiological recording assay (α5-GABAAR relative efficacy), QPatch. Format: cell-based. The note with it: GABA EC10-20. The source says:
Mouse L(tk^−) cells stably expressing human α1β3γ2, α2β3γ2, α3β3γ2, α5β3γ2 GABAARs generated by transfection of the individual subunits in the dexamethasone-inducible expression vector pMSGneo in mouse L(tk^−) cells (Hadingham et al., 1993, Mol. Pharmacol. 43:970-975 and 1993, Mol. Pharmacol. 44:1211-1218) were used for binding and functional assays. For certain compounds, HEK293 cells stable expressing the human α1β3γ2L, α2β3γ2L, α3β3γ2L and α5β3γ2L GABAA receptors were used to evaluate their functional effects in a SyncroPatch electrophysiology assay.
For QPatch electrophysiology testing, 1 μM dexamethasone was added to the culture medium of L(tk^−) cells 24 hours before the recordings were performed. Cells were typically used for electrophysiology experiments 72-96 hours after splitting.
The efficacy of modulators was evaluated using either the automated patch-clamp platform QPatch16 (Sophion, Copenhagen, Denmark) or the SyncroPatch 384i (Nanion Technologies, Germany). Cells were harvested from flasks by enzymatic dissociation and re-suspended in serum-free medium.
For QPatch recordings, all experiments were carried out at room temperature (20-22° C.) using a standard whole cell procedure and physiological solutions. Gigaseals were formed upon execution of a combined suction/voltage protocol with subsequent increased suction leading to the whole-cell configuration. The currents recorded were acquired at 1 KHz and filtered at 0.3 KHz using a Bessel filter. Whole-cell currents were measured at a holding potential of −65 mV.
For QPatch recordings, the extracellular solution contained of (in mM): 145 NaCl, 4 KCl, 1 MgCl2, 2CaCl2, 10 HEPES, 10 D-glucose (pH 7.4), and the intracellular solution consisted of (in mM): 96 KCl, 28 CsCl, 25 KOH, 4.3 CaCl2), 1.4 MgCl2, 10 EGTA, HEPES, 3 MgATP (pH 7.2). The osmolarities of the extracellular and intracellular solutions were 305 and 295 mOsm respectively.
The effects of modulators were evaluated in the presence of a submaximal GABA concentration, giving typically 10-20% activation (GABA EC10-20) of the response elicited by a saturating GABA concentration. For QPatch recordings, to check and ensure baseline current stability before compound addition, five consecutive applications of GABA EC10-20 alone (each application with a 2 s duration, separated by minimum 1 min wash off periods) were performed before compound addition. The test compound was applied using the pipetting system of the QPatch system 1 min at least prior to co-application with GABA EC10-20. For SyncroPatch recordings, GABA EC20 alone was applied three times (1 s long applications, with wash steps in-between) before compound addition. This was followed by a 1-2 min pre-incubation with the test compound and then re-application of GABA EC10-20 in the presence of the compound. Finally, following a further wash step, a saturating concentration of GABA was applied, allowing the accurate evaluation for each cell of the percentage baseline activation elicited by the submaximal GABA applied.
The compounds were first dissolved in DMSO as a 10 mM stock and then further diluted to the testing concentrations so that the final DMSO concentration in the extracellular recording solution was kept constant at 0.1% for the QPatch recordings, or 0.2% for the SyncroPatch recordings.
The % efficacy of modulators was determined from the GABA elicited currents recorded in the presence and absence of the test compound, using the formula:
[((compound peak current−leak)−(GABA peak current−leak))/(GABA peak current−leak)]*100,
where ‘leak’ is the leak baseline current at −65 mV, ‘compound peak current’ is the current elicited by co-application of compound and GABA, and ‘GABA peak current’ is the current elicited by GABA alone during the 5th GABA application. The results were presented as ‘relative efficacy’ for each compound generally at a concentration equal or higher than 100 times their determined Ki. […]

Test [2] concerns the target T2, human recombinant GABAAR containing α5β3γ2 subunits (benzodiazepine site) (Homo sapiens, UniProt P18507+P31644).
T2 construct: expressed in transfected cells; host or cells: mouse L(tk−) cells, dexamethasone-inducible vector pMSGneo
Kind of test: In vitro radioligand binding assay (α5-GABAAR Ki). The note with it: inhibition of [3H]Ro15-1788 binding, membranes of L(tk−) cells expressing human α5β3γ2; read-out: α5-GABAAR Ki. In outline:
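Membranes from mouse L(tk^−) cells stably expressing human α5β3γ2 GABAAR incubated 1 h at 4° C with 4 nM [^3H]Ro15-1788 and test compound; nonspecific binding with 1 μM TP003. Filter-bound radioactivity counted; Ki from IC50 by Cheng-Prusoff using measured Kd.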

T2 sequence (P31644 32-462): as the sequence (P31644 32-462) above
T2 sequence (P28472 26-473 partner): as the sequence (P28472 26-473 partner) above
T2 sequence (P18507 40-475): as the sequence (P18507 40-475) above

With `COc1nc(-c2cncn2C)ccc1NC(=O)c1c(-c2ccccc2)noc1C` [Example 132, N-[2-Methoxy-6-(3-methylimidazol-4-yl)-3-pyridyl]-5-methyl-3-phenyl-isoxazole-4-carboxamide], in test [1] (Conc 1 μM), the “α5-GABAAR Relative Efficacy (to DMCM), Qpatch” value (shortened to “α5-GABAAR Relative Efficacy”) is on record as −0.52. The Ki in test [2] worked out at 4 nM.
Turning to `COc1nc(-c2cnccc2N)ccc1NC(=O)c1c(-c2ccccc2)noc1C` [Example 78, N-(4′-Amino-6-methoxy-[2,3′-bipyridin]-5-yl)-5-methyl-3-phenylisoxazole-4-carboxamide], in test [1] (Conc 0.1 μM), the “α5-GABAAR Relative Efficacy” value is recorded as −0.42. Further, the Ki in test [2] is 1 nM.
For the compound `COc1nc(-c2cncc(N)c2)ccc1NC(=O)c1c(-c2ccccc2)noc1C` [Example 11, N-[6-(5-Amino-3-pyridyl)-2-methoxy-3-pyridyl]-5-methyl-3-phenyl-isoxazole-4-carboxamide], the “α5-GABAAR Relative Efficacy” value in test [1] (Conc 0.3 μM) was −0.84. Further, in test [2], the Ki stood at 2.9 nM.
Turning to `COc1nc(-c2cncs2)ccc1NC(=O)c1c(-c2ccccc2)noc1C` [Example 94, N-(2-Methoxy-6-(thiazol-5-yl)pyridin-3-yl)-5-methyl-3-phenylisoxazole-4-carboxamide], the “α5-GABAAR Relative Efficacy” value in test [1] (Conc 3 μM) is −0.50. Besides, the Ki in test [2] was 21.7 nM.
For the compound `COc1ncc(-c2ccc(NC(=O)c3c(-c4ccccc4)noc3C)c(OC)n2)cn1` [Example 41, N-(2-Methoxy-6-(2-methoxypyrimidin-5-yl)pyridin-3-yl)-5-methyl-3-phenyl-isoxazole-4-carboxamide], the “α5-GABAAR Relative Efficacy” value in test [1] (Conc 0.3 μM) is recorded as −0.87. Moreover, the inhibition constant (Ki) in test [2] came to 1.8 nM.
As for `COc1nc(-c2cc(C)nc(N)c2)ccc1NC(=O)c1c(-c2ccccc2)noc1C` [Example 81, N-(2′-Amino-6-methoxy-6′-methyl-[2,4′-bipyridin]-5-yl)-5-methyl-3-phenylisoxazole-4-carboxamide], in test [1] (Conc 1 μM), the “α5-GABAAR Relative Efficacy” value is recorded as −1.26. Besides, in test [2], the Ki worked out at 8 nM.
Consider `COc1nc(-c2cnc(C(=O)NCCN(C)C)nc2)ccc1NC(=O)c1c(-c2ccccc2)noc1C` [Example 172, N-[6-[2-[2-(Dimethylamino)ethylcarbamoyl]pyrimidin-5-yl]-2-methoxy-3-pyridyl]-5-methyl-3-phenyl-isoxazole-4-carboxamide], for which the “α5-GABAAR Relative Efficacy” value in test [1] (Conc 0.1 μM) is −0.80. Also, in test [2], the Ki was 0.2 nM.
Regarding `CCOc1ncc(-c2ccc(NC(=O)c3c(-c4ccccc4)noc3C)c(OC)n2)cn1` [Example 48, N-[6-(2-Ethoxypyrimidin-5-yl)-2-methoxy-3-pyridyl]-5-methyl-3-phenyl-isoxazole-4-carboxamide], the “α5-GABAAR Relative Efficacy” value in test [1] (Conc 0.3 μM) is listed as −0.90. In test [2], the Ki turned out to be 2.7 nM.
For `COCc1ncc(-c2ccc(NC(=O)c3c(-c4ccccc4)noc3C)c(OC)n2)cn1` [Example 125, N-[2-Methoxy-6-[2-(methoxymethyl)pyrimidin-5-yl]-3-pyridyl]-5-methyl-3-phenyl-isoxazole-4-carboxamide] the same measures were −0.84 and 2.5 nM.
With `COc1nc(-c2cnc(C(N)=O)nc2)ccc1NC(=O)c1c(C)nnn1-c1ccccc1` [Example 165, 5-(6-Methoxy-5-(4-methyl-1-phenyl-1H-1,2,3-triazole-5-carboxamido)pyridin-2-yl)pyrimidine-2-carboxamide], in test [1] (Conc 3 μM), the “α5-GABAAR Relative Efficacy” value is −0.84. The Ki in test [2] was 35.4 nM.
`COc1nc(-c2cnc(NCCN)nc2)ccc1NC(=O)c1c(-c2ccccc2)noc1C.Cl` [Example 171, N-[6-[2-(2-Aminoethylamino)pyrimidin-5-yl]-2-methoxy-3-pyridyl]-5-methyl-3-phenyl-isoxazole-4-carboxamide hydrochloride]: the “α5-GABAAR Relative Efficacy” value in test [1] (Conc 0.1 μM) is −0.75. The Ki in test [2] turned out to be 3.8 nM.
Regarding `COc1nc(-c2ccc(=O)n(C)c2)cnc1NC(=O)c1c(-c2ccccc2)noc1C` [Example 149, N-[3-Methoxy-5-(1-methyl-6-oxo-3-pyridyl)pyrazin-2-yl]-5-methyl-3-phenyl-isoxazole-4-carboxamide], the “α5-GABAAR Relative Efficacy” value in test [1] (Conc 1 μM) is listed as −0.66. In addition, the Ki in test [2] worked out at 5.2 nM.
For `CNc1cc(-c2ccc(NC(=O)c3c(-c4ccccc4)noc3C)c(OC)n2)ccn1` [Example 103, N-(6-Methoxy-2′-(methylamino)-[2,4′-bipyridin]-5-yl)-5-methyl-3-phenylisoxazole-4-carboxamide] the same measures were −0.78 and 6.6 nM.
With `COc1nc(-c2cnc(CN(C)C)nc2)ccc1NC(=O)c1c(C)nnn1-c1ccccc1` [Example 161, N-(6-(2-((Dimethylamino)methyl)pyrimidin-5-yl)-2-methoxypyridin-3-yl)-4-methyl-1-phenyl-1H-1,2,3-triazole-5-carboxamide], the “α5-GABAAR Relative Efficacy” value in test [1] (Conc 10 μM) was −0.71. Besides, in test [2], the Ki amounted to 61.5 nM.
Consider `COc1nc(-c2cnc3n2CCOC3)ccc1NC(=O)c1c(-c2ccccc2)noc1C` [Example 79, N-[6-(6,8-Dihydro-5H-imidazo[2,1-c][1,4]oxazin-3-yl)-2-methoxy-3-pyridyl]-5-methyl-3-phenyl-isoxazole-4-carboxamide], for which the “α5-GABAAR Relative Efficacy” value in test [1] (Conc 0.1 μM) is −0.76. Also, in test [2], the Ki was found to be 0.8 nM.
`COc1nc(-c2cccc3c2CNC3=O)ccc1NC(=O)c1c(-c2ccccc2)noc1C` [Example 97, N-(2-Methoxy-6-(1-oxoisoindolin-4-yl)pyridin-3-yl)-5-methyl-3-phenylisoxazole-4-carboxamide]: the “α5-GABAAR Relative Efficacy” value in test [1] (Conc 3 μM) is listed as −0.67. Further, the Ki in test [2] came out at 19.1 nM.
Turning to `COc1nc(-c2cncc(N)n2)ccc1NC(=O)c1c(-c2ccccc2)noc1C` [Example 40, N-[6-(6-Aminopyrazin-2-yl)-2-methoxy-3-pyridyl]-5-methyl-3-phenyl-isoxazole-4-carboxamide], the “α5-GABAAR Relative Efficacy” value in test [1] (Conc 1 μM) is on record as −0.57. In addition, in test [2], the Ki was 6.9 nM.
As to `CCn1nc(-c2nccs2)cc1-c1ccc(NC(=O)c2c(-c3ccccc3)noc2C)c(OC)n1` [Example 80, N-(6-(1-Ethyl-3-(thiazol-2-yl)-1H-pyrazol-5-yl)-2-methoxypyridin-3-yl)-5-methyl-3-phenylisoxazole-4-carboxamide], in test [1] (Conc 3 μM), the “α5-GABAAR Relative Efficacy” value is listed as −0.65. In test [2], the Ki was found to be 19.5 nM.
Turning to `COc1nc(-c2nnco2)ccc1NC(=O)c1c(-c2ccccc2)noc1C` [Example 58, N-[2-Methoxy-6-(1,3,4-oxadiazol-2-yl)-3-pyridyl]-5-methyl-3-phenyl-isoxazole-4-carboxamide], the “α5-GABAAR Relative Efficacy” value in test [1] (Conc 3 μM) is recorded as −0.79. For the same compound, in test [2], the Ki was 18.1 nM.
On to `CCOc1ncc(-c2cnc(NC(=O)c3c(-c4ccccc4)noc3C)c(OC)n2)cn1` [Example 142, N-[5-(2-Ethoxypyrimidin-5-yl)-3-methoxy-pyrazin-2-yl]-5-methyl-3-phenyl-isoxazole-4-carboxamide], for which, in test [1] (Conc 0.3 μM), the “α5-GABAAR Relative Efficacy” value is recorded as −0.85. Besides, in test [2], the Ki worked out at 2.9 nM.
